Test results from US8324264B1, “Inhibitors of bacterial biofilms and related methods” (Sequoia Sciences, Inc., priority 2011, dated 2012).
Converted amounts (≈) assume the structure as drawn.

Key:
E. coli biofilms = assay: Biofilm growth assay (spreading biofilm on semi-solid agar), E. coli; assay type: cell-based; details: biofilm growth assay, overnight 37° C., vs negative controls, Tables 1-5; for IC85: Escherichia coli, read-out: E. coli: concentration that reduces the area of the spreading biofilm by greater than or equal to 85%
Excerpt: (§1) “Biofilm Growth Assay” refers to an assay performed on semi-solid agar surface where the bacteria collectively move out from an inoculation point. To those skilled in the art, the act of bacteria collectively moving out from an inoculation point on a semi-solid surface may be referred to as swarming or a spreading biofilm. (Anderson, et al Microbiology, 2003, 149, 37-46; Daniels, et al. FEMS Microbiology Reviews, 2004, 28, 261-289). The procedure to perform this assay is described in detail in the Examples. This type of surface motility by bacteria has been reported in the literature by those skilled in the art. […] These references are incorporated herein by reference in their entirety.
(§2) The biofilm growth assay was carried out to measure swarming or biofilm spreading on semi-solid agar media in round plates (for example, 100×15 mm), also referred to as Petri dishes. For E. coli, the plates contained LB medium with 0.6% agar and 0.5% glucose. P. aeruginosa plates were made with M8 agar supplemented with 0.2% glucose, 100 μM CaCl2, 1 mM MgSO4, and 0.5% Casamino acids. The agar plates of this assay consisted of 0.4% to 0.7% agar (Bacto or Noble agar), although other media may also be used as described in the literature and known to those skilled in the art. Test compounds at the desired concentration were added to the cooled, autoclaved media. Portions of the media were then poured into the plates (20 mL/plate), and the plates allowed to dry at room temperature for approximately 3 to 4 hours. Alternatively, however, plates may be dried in a laminar flow hood for approximately fifteen to twenty minutes. Overnight cultures were grown in a 37° C. shaker in LB (E. coli) or TSB (P. aeruginosa). Plates were inoculated by placing 5 μL of the appropriate overnight culture in the centers of the plates. The plates then were incubated overnight at 37° C. The area of the zone of spreading bacteria was then measured and replicates are averaged. Percent inhibition was calculated as 100×(area without compound−area with compound)/(area without compound). An active compound was considered that which reduces the area of the spreading biofilm compared to negative controls by greater than or equal to 85%. The values shown in Table 1 are the concentrations of compounds (μg/ml) tested in the biofilm growth assay that reduce the area of the spreading biofilm compared to negative controls by greater than or equal to 85% unless noted differently in Table 1. A > (“greater than” symbol) as used in Table 1 is well understood to those skilled in the art as an indication that the listed concentration was not effective at this concentration.
(§3) All of the compounds shown in Tables 2, 3, 4, and 5, below, were prepared semi-synthetically from oleanolic acid, except for Compounds 2 and 3. Compound 2 was prepared from ursolic acid. Compound 3 was prepared from hederagenin, but could also be prepared from an oleanolic acid analog with a hydroxyl at C23 or C24. These compounds were tested in the spreading biofilm assay according to the methods detailed in Example I, above. The values shown in Tables 2, 3, 4, and 5 are the concentrations of compounds tested in the biofilm growth assay that reduce the area of the spreading biofilm compared to negative controls by greater than or equal to 85%.

P. aeruginosa biofilms = assay: Biofilm growth assay (spreading biofilm on semi-solid agar), P. aeruginosa; assay type: cell-based; details: biofilm growth assay, overnight 37° C., vs negative controls, Tables 1-5; for IC85: Pseudomonas aeruginosa, read-out: P. aeruginosa: concentration that reduces the area of the spreading biofilm by greater than or equal to 85%
Excerpt: as §1, §2, §3

Row | Structure (SMILES) | E. coli: concentration that reduces the area of the spreading biofilm by greater than or equal to 85% (E. coli biofilms) [µg/mL] | P. aeruginosa: concentration that reduces the area of the spreading biofilm by greater than or equal to 85% (P. aeruginosa biofilms) [µg/mL] | IC85 (E. coli biofilms) [µg/mL] | IC85 (P. aeruginosa biofilms) [µg/mL]
1 | CC1(C)CC[C@]2(c3nnc(S)[nH]3)CC[C@]3(C)C(=CCC4[C@@]5(C)Cc6c(n[nH]c6N)C(C)(C)C5CC[C@]43C)C2C1 (stereo partly drawn) [Compound 75, 5-((4aS,6aS,6bR,13aR)-12-Amino-2,2,6a,6b,9,9,13a-heptamethyl-2,3,4,4a,5,6,6a,6b,7,8,8a,9,11,13,13a,13b,14,15b-octadecahydro-1H-chryseno[1,2-f]indazol-4-a-yl)-4H-1,2,4-triazole-3-thiol] | 1 | 0.5 | – | –
2 | CC1(C)CC[C@]2(C(=O)n3cnc(S)n3)CC[C@]3(C)C(=CCC4[C@@]5(C)Cc6c(n[nH]c6N)C(C)(C)C5CC[C@]43C)C2C1 (stereo partly drawn) [Compound 76, ((4aS,6aS,6bR,13aR)-12-Amino-2,2,6a,6b,9,9,13a-heptamethyl-2,3,4,4a,5,6,6a,6b,7,8,8a,9,11,13,13a,13b,14,15b-octadecahydro-1H-chryseno[1,2-f]indazol-4-a-yl)(3-mercapto-1H-1,2,4-triazol-1-yl)methanone] | – | – | 2 (≈ 3.47 µM) | 0.5 (≈ 0.867 µM)
3 | Cc1nnc(S)n1NC(=O)[C@]12CCC(C)(C)CC1C1=CCC3[C@@]4(C)Cc5c(n[nH]c5N)C(C)(C)C4CC[C@@]3(C)[C@]1(C)CC2 (stereo partly drawn) [Compound 77, (4aS,6aS,6bR,13aR)-12-Amino-N-(3-mercapto-5-methyl-4H-1,2,4-triazol-4-yl)-2,2,6a,6b,9,9,13a-heptamethyl-2,3,4,4a,5,6,6a,6b,7,8,8a,9,11,13,13a,13b,14,15b-octadecahydro-1H-chryseno[1,2-f]indazole-4-a-carboxamide] | – | – | 2 (≈ 3.3 µM) | 1 (≈ 1.65 µM)
4 | CC1(C)CC[C@]2(c3nnc(O)s3)CC[C@]3(C)C(=CCC4[C@@]5(C)Cc6c(n[nH]c6N)C(C)(C)C5CC[C@]43C)C2C1 (stereo partly drawn) [Compound 78, 5-((4aS,6aS,6bR,13aR)-12-Amino-2,2,6a,6b,9,9,13a-heptamethyl-2,3,4,4a,5,6,6a,6b,7,8,8a,9,11,13,13a,13b,14,15b-octadecahydro-1H-chryseno[1,2-f]indazol-4-a-yl)-1,3,4-thiadiazol-2-ol] | 1 | >1 | – | –
5 | CC1(C)CC[C@]2(C(=O)Nc3nnc(S(N)(=O)=O)s3)CC[C@]3(C)C(=CCC4[C@@]5(C)Cc6c(n[nH]c6N)C(C)(C)C5CC[C@]43C)C2C1 (stereo partly drawn) [Compound 80, (4aS,6aS,6bR,13aR)-12-Amino-2,2,6a,6b,9,9,13a-heptamethyl-N-(5-sulfamoyl-1,3,4-thiadiazol-2-yl)-2,3,4,4a,5,6,6a,6b,7,8,8a,9,11,13,13a,13b,14,15b-octadecahydro-1H-chryseno[1,2-f]indazole-4-a-carboxamide] | 1 | 1 | – | –
6 | CC1(C)CC[C@]2(c3n[nH]c(O)c3CCO)CC[C@]3(C)C(=CCC4[C@@]5(C)Cc6c(n[nH]c6N)C(C)(C)C5CC[C@]43C)C2C1 (stereo partly drawn) [Compound 81, 3-((4aS,6aS,6bR,13aR)-12-Amino-2,2,6a,6b,9,9,13a-heptamethyl-2,3,4,4a,5,6,6a,6b,7,8,8a,9,11,13,13a,13b,14,15b-octadecahydro-1H-chryseno[1,2-f]indazol-4-a-yl)-4-(2-hydroxyethyl)-1H-pyrazol-5-ol] | 1 | 0.5 | – | –
7 | Cc1c([C@]23CCC(C)(C)CC2C2=CCC4[C@@]5(C)Cc6c(n[nH]c6N)C(C)(C)C5CC[C@@]4(C)[C@]2(C)CC3)n[nH]c1O (stereo partly drawn) [Compound 82, 3-((4aS,6aS,6bR,13aR)-12-Amino-2,2,6a,6b,9,9,13a-heptamethyl-2,3,4,4a,5,6,6a,6b,7,8,8a,9,11,13,13a,13b,14,15b-octadecahydro-1H-chryseno[1,2-f]indazol-4-a-yl)-4-methyl-1H-pyrazol-5-ol] | 1 | 0.5 | – | –
8 | CC1(C)CC[C@]2(c3n[nH]c(O)c3F)CC[C@]3(C)C(=CCC4[C@@]5(C)Cc6c(n[nH]c6N)C(C)(C)C5CC[C@]43C)C2C1 (stereo partly drawn) [Compound 83, 3-((4aS,6aS,6bR,13aR)-12-Amino-2,2,6a,6b,9,9,13a-heptamethyl-2,3,4,4a,5,6,6a,6b,7,8,8a,9,11,13,13a,13b,14,15b-octadecahydro-1H-chryseno[1,2-f]indazol-4-a-yl)-4-fluoro-1H-pyrazol-5-ol] | 0.5 | 0.25 | – | –
9 | CC1(C)CC[C@]2(c3n[nH]c(O)c3CCN)CC[C@]3(C)C(=CCC4[C@@]5(C)Cc6c(n[nH]c6N)C(C)(C)[C@@H]5CC[C@]43C)[C@@H]2C1 (stereo partly drawn) [Compound 84, 3-((4aS,6aS,6bR,13aR)-12-Amino-2,2,6a,6b,9,9,13a-heptamethyl-2,3,4,4a,5,6,6a,6b,7,8,8a,9,11,13,13a,13b,14,15b-octadecahydro-1H-chryseno[1,2-f]indazol-4-a-yl)-4-(2-aminoethyl)-1H-pyrazol-5-ol] | – | – | 0.5 (≈ 0.87 µM) | 0.125 (≈ 0.217 µM)
10 | CN(C)CCc1c([C@]23CCC(C)(C)CC2C2=CCC4[C@@]5(C)Cc6c(n[nH]c6N)C(C)(C)C5CC[C@@]4(C)[C@]2(C)CC3)n[nH]c1O (stereo partly drawn) [Compound 85, 3-((4aS,6aS,6bR,13aR)-12-Amino-2,2,6a,6b,9,9,13a-heptamethyl-2,3,4,4a,5,6,6a,6b,7,8,8a,9,11,13,13a,13b,14,15b-octadecahydro-1H-chryseno[1,2-f]indazol-4-a-yl)-4-(2-(dimethylamino)ethyl)-1H-pyrazol-5-ol] | 1 | 0.5 | – | –
11 | CNCCc1c([C@]23CCC(C)(C)CC2C2=CCC4[C@@]5(C)Cc6c(n[nH]c6N)C(C)(C)C5CC[C@@]4(C)[C@]2(C)CC3)n[nH]c1O (stereo partly drawn) [Compound 86, 3-((4aS,6aS,6bR,13aR)-12-Amino-2,2,6a,6b,9,9,13a-heptamethyl-2,3,4,4a,5,6,6a,6b,7,8,8a,9,11,13,13a,13b,14,15b-octadecahydro-1H-chryseno[1,2-f]indazol-4-a-yl)-4-(2-(methylamino)ethyl)-1H-pyrazol-5-ol] | 2 | 0.5 | – | –
12 | CC1(C)CC[C@]2(c3n[nH]c(O)c3N3CCOCC3)CC[C@]3(C)C(=CCC4[C@@]5(C)Cc6c(n[nH]c6N)C(C)(C)[C@@H]5CC[C@]43C)[C@@H]2C1 (stereo partly drawn) [Compound 88, 3-((4aS,6aS,6bR,13aR)-12-Amino-2,2,6a,6b,9,9,13a-heptamethyl-2,3,4,4a,5,6,6a,6b,7,8,8a,9,11,13,13a,13b,14,15b-octadecahydro-1H-chryseno[1,2-f]indazol-4-a-yl)-4-morpholino-1H-pyrazol-5-ol] | – | – | 0.5 (≈ 0.811 µM) | 0.25 (≈ 0.405 µM)
13 | CN1CCN(c2c([C@]34CCC(C)(C)CC3C3=CCC5[C@@]6(C)Cc7c(n[nH]c7N)C(C)(C)C6CC[C@@]5(C)[C@]3(C)CC4)n[nH]c2O)CC1 (stereo partly drawn) [Compound 89, 3-((4aS,6aS,6bR,13aR)-12-Amino-2,2,6a,6b,9,9,13a-heptamethyl-2,3,4,4a,5,6,6a,6b,7,8,8a,9,11,13,13a,13b,14,15b-octadecahydro-1H-chryseno[1,2-f]indazol-4-a-yl)-4-(4-methylpiperazin-1-yl)-1H-pyrazol-5-ol] | 1 | 1 | – | –
14 | CC1(C)CC[C@]2(C(=O)O)CC[C@]3(C)C(=CCC4[C@@]5(C)Cc6c[nH]nc6C(C)(C)C5CC[C@]43C)C2C1 (stereo partly drawn) [D] | – | – | 4 (≈ 8.36 µM) | 1 (≈ 2.09 µM)
15 | Cn1cc2c(n1)C(C)(C)C1CC[C@]3(C)C(CC=C4C5CC(C)(C)CC[C@]5(C(=O)O)CC[C@]43C)[C@@]1(C)C2 (stereo partly drawn) [E] | – | – | > 16 | 2 (≈ 4.06 µM)
